# Target: MAT2A (Homo sapiens (Human), UniProt P31153)
# Experiment: MAT2A Biochemical Assay
# Conditions: Biomol Green readout O.D.620; 1 uM start, 3-fold dilution, 10 doses; read-out: MAT2A enzymatic IC50
# Method: Example A: MAT2A Biochemical Assay
# Compounds described herein were tested as follows:
# • (1). Prepared 1×Assay buffer. • (2). Preparation of compound concentration gradient: the compounds test condition were 1 uM start, 3-fold dilution, 10 doses, singlet or duplicate. 100× concentration compounds were prepared in 384-well plate. Then used Echo 550 to transfer 250 nl to a 384-reaction plate for later use. Added 250 nl of 100% DMSO to the negative and positive control wells. • (3). Prepared 1.67× final concentration enzyme solution with 1×Assay buffer. • (4). Added 15 μl of 1.67× Enzyme solution to the compound wells and positive control wells; added 15 μl of 1 Assay buffer to the negative control wells. • (5). Centrifuged at 1000 rpm for 30 seconds and incubate for 15 minutes. • (6). Prepared 2.5× final concentration Substrate mix solution with 1×Assay buffer. • (7). Added 10 μl of 2.5× final concentration Substrate mix solution to start the reaction. • (8). Centrifuged at 1000 rpm for 30 seconds and incubate for 150 minutes. • (9). Added 50 μl Biomol Green to stop the reaction, centrifuge at 1000 rpm for 30 seconds and incubate for 15 minutes. read O.D.620, process data.
# • (1) Using GraphPad Prism 5. • (2) % Inh=(Max signal−Compound signal)/(Max signal−Min signal)*100. • (3) Max signal was obtained from the positive control wells. • (4) Min signal was obtained from the negative control wells.
# Sequence of MAT2A (P31153 whole entry, species assumed): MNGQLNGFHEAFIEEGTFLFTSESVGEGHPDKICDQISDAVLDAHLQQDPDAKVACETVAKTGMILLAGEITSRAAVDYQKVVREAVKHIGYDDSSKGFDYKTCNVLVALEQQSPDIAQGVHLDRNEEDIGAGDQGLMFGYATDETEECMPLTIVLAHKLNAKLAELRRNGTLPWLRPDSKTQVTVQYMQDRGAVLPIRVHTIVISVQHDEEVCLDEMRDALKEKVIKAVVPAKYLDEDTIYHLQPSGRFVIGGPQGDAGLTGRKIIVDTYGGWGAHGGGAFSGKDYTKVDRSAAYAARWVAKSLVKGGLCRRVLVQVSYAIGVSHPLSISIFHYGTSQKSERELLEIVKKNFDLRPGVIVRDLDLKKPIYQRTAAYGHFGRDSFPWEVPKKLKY
row,IC50,SMILES
1,< 0.05 µM,"C#CCNc1nc(=O)n(-c2cnccn2)c2cc(C(F)(F)F)cc(OC)c12 [Example 54, 5-methoxy-4-(prop-2-yn-1-ylamino)-1-(pyrazin-2-yl)-7-(trifluoromethyl)quinazolin-2 (1H)-one]"
2,< 0.05 µM,"C#CCNc1nc(=O)n(-c2cccnc2)c2cc(Cl)cc(OC)c12 [Example 20, 7-chloro-5-methoxy-4-(prop-2-yn-1-ylamino)-1-(pyridin-3-yl)quinazolin-2 (1H)-one]"
3,< 0.05 µM,"C#CC1(Nc2nc(=O)n(-c3cnccn3)c3cc(Cl)cc(OC)c23)CC1 [Example 24, 7-chloro-4-((1-ethynylcyclopropyl)amino)-5-methoxy-1-(pyrazin-2-yl)quinazolin-2 (1H)-one]"
4,< 0.05 µM,"C#CCNc1nc(=O)n(-c2cccnc2)c2cc(C(F)(F)F)cc(OCF)c12 [Example 38, 5-(fluoromethoxy)-4-(prop-2-yn-1-ylamino)-1-(pyridin-3-yl)-7-(trifluoromethyl)quinazolin-2 (1H)-one]"
5,< 0.05 µM,"C#CCNc1nc(=O)n(-c2cccnc2C)c2nc(C(F)(F)F)cc(OC)c12 [Example 42, 5-methoxy-1-(2-methylpyridin-3-yl)-4-(prop-2-yn-1-ylamino)-7-(trifluoromethyl)pyrido[2,3-d]pyrimidin-2 (1H)-one]"
6,< 0.05 µM,C#CC1(Nc2nc(=O)n(-c3cccnc3C)c3cc(C(F)(F)F)cc(OC)c23)CCC1 [Example 50]
7,< 0.05 µM,"C#CCNc1nc(=O)n(-c2cccnc2)c2cc(Cl)ccc12 [Example 1, 7-chloro-4-(prop-2-yn-1-ylamino)-1-(pyridin-3-yl)quinazolin-2 (1H)-one]"
8,< 0.05 µM,"C#CCNc1nc(=O)n(-c2cccnc2C)c2cc(Cl)ccc12 [Example 15, 7-chloro-1-(2-methylpyridin-3-yl)-4-(prop-2-yn-1-ylamino)quinazolin-2 (1H1)-one]"
9,< 0.05 µM,"C#CCNc1nc(=O)n(-c2cccnc2)c2nc(C(F)(F)F)ccc12 [Example 57, 4-(prop-2-yn-1-ylamino)-1-(pyridin-3-yl)-7-(trifluoromethyl)pyrido[2,3-d]pyrimidin-2 (1H)-one]"
10,< 0.05 µM,C#CC1(Nc2nc(=O)n(-c3cccnc3)c3cc(Cl)ccc23)CC1 [Example 4]
11,< 0.05 µM,"C#CC1(Nc2nc(=O)n(-c3cccnc3C)c3cc(C(F)(F)F)ccc23)CC1 [Example 46, 4-((1-ethynylcyclopropyl)amino)-1-(2-methylpyridin-3-yl)-7-(trifluoromethyl)quinazolin-2 (1H)-one]"
12,< 0.05 µM,"C#CC1(Nc2nc(=O)n(-c3cccnc3C)c3cc(Cl)cc(OC)c23)CC1 [Example 27, 7-chloro-4-((1-ethynylcyclopropyl)amino)-5-methoxy-1-(2-methylpyridin-3-yl)quinazolin-2 (11H)-one]"
13,< 0.05 µM,"C#CC1(Nc2nc(=O)n(-c3cccnc3C)c3cc(Cl)ccc23)CC1 [Example 16, 7-chloro-4-((1-ethynylcyclopropyl)amino)-1-(2-methylpyridin-3-yl)quinazolin-2 (1H)-one]"
14,> 1 µM,"C#CC1(Nc2nc(=O)n(-c3cccnc3)c3cc(C(F)(F)F)cnc23)CC1 [Example 56, 4-((1-ethynylcyclopropyl)amino)-1-(pyridin-3-yl)-7-(trifluoromethyl)pyrido[3,2-d]pyrimidin-2 (1H)-one]"
15,< 0.05 µM,"C=CCNc1nc(=O)n(-c2cccnc2)c2cc(Cl)ccc12 [Example 5, 4-(allylamino)-7-chloro-1-(pyridin-3-yl)quinazolin-2 (1H)-one]"
16,< 0.05 µM,"C=CC1(Nc2nc(=O)n(-c3cccnc3C)c3cc(Cl)cc(OC)c23)CC1 [Example 75, 7-chloro-5-methoxy-1-(2-methylpyridin-3-yl)-4-((1-vinylcyclopropyl)amino)quinazolin-2 (1H)-one]"
17,< 0.05 µM,"C#CCCNc1nc(=O)n(-c2ccccc2Cl)c2cc(Cl)ccc12 [Example 8, 4-(but-3-yn-1-ylamino)-7-chloro-1-(2-chlorophenyl)quinazolin-2 (1H)-one]"
18,< 0.05 µM,"C#CCNc1nc(=O)n(-c2cnccn2)c2cc(Cl)ccc12 [Example 17, 7-chloro-4-(prop-2-yn-1-ylamino)-1-(pyrazin-2-yl)quinazolin-2 (1H)-one]"

# — patent publication US20250042890A1, “METHIONINE ADENOSYLTRANSFERASE 2a (MAT2A) INHIBITORS AND USES THEREOF” (Insilico Medicine IP Limited, priority 2021, published 2025)
